From ChEMBL document CHEMBL5729474, “Heterocyclic compound as a protein kinase inhibitor” (2022)

The compounds below were run against Tyrosine-protein kinase JAK1 (Homo sapiens, UniProt P23458) (assay: ADP-Glo Kinase Assay: A control material and a test material were prepared for each concentration, in such a way that they were diluted by means of DMSO. At the same time, ATP (250 uM) and JAK substrate (JAK1, IRS-itide 40 ng/mL) were prepared, in such a way that they were diluted by means of kinase buffer (40 mM Tris-HCl pH 7.5, 20 mM MgCl2, 0.5 mg/mL BSA, 50 uM DTT).A test drug for each concentration, substrate, ATP and JAK enzyme were mixed in an eppendorf tube, and reacted in a 30° C. incubator for 40 minutes.ADP-Glo™ reagent contained in ADP-Glo™ Kinase Enzyme System (Promega, USA, V9571) was added into each eppendorf tube, and reacted in a 30° C. incubator for 40 minutes. A kinase detection reagent contained in ADP-Go™ Kinase Enzyme System was inserted into the eppendorf tube, then an integration time was set to 1 second by using Wallac Victor 2™, then luminescence was measured, and then JAKs phosphorylation inhibition ability of the test material was analyzed. The concentration of the compound, which causes 50% of the JAK enzyme activity inhibition in comparison With the control group, was determined as IC50 (nM) of an inhibitor, wherein the results thereof are shown in a following table 1.).
Sequence of Tyrosine-protein kinase JAK1 (P23458 whole entry): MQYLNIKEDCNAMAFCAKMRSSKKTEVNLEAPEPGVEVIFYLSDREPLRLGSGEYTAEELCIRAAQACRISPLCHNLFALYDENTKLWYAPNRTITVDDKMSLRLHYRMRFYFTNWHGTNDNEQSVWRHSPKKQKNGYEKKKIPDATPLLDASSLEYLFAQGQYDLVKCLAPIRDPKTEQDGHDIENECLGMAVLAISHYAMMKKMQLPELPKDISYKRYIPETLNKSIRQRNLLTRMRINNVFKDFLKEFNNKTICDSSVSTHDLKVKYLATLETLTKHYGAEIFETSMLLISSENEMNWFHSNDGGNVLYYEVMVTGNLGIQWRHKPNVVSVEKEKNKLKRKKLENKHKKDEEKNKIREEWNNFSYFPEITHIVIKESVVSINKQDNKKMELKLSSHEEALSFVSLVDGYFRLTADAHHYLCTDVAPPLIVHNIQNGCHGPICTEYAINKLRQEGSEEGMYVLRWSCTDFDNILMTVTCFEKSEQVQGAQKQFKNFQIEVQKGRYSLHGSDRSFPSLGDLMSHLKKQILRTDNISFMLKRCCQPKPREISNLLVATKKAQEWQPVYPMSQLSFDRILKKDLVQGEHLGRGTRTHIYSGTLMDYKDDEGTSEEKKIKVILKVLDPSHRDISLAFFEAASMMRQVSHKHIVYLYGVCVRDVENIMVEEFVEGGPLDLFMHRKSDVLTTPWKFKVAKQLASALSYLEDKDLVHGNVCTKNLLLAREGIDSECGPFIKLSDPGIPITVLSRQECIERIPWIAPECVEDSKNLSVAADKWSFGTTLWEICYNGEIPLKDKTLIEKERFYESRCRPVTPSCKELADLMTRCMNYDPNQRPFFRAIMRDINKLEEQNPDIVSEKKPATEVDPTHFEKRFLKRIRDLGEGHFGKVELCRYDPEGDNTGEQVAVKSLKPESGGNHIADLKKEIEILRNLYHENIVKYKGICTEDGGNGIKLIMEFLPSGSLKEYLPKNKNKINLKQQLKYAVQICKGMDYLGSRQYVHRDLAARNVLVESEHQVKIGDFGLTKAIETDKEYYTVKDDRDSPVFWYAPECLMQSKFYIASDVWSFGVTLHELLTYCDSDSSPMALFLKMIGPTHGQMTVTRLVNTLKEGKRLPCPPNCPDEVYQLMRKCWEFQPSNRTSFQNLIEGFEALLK

IC50, > 200 nM:
CCS(=O)(=O)Nc1ccc(-c2cc(NC(=O)C3CCCCC3)nc3[nH]ccc23)cc1F, CC1CN(C(=O)c2cc(Cl)ncc2Cl)CC=C1c1cc(NC(=O)C2CC2)nc2[nH]ccc12 (centres undefined), O=C(Nc1cc(C2=CCN(C(=O)CBr)CC2)c2cc[nH]c2n1)C1CC1, CC1CN(C(=O)c2cc(Cl)cc(Cl)c2O)CC=C1c1cc(NC(=O)C2CC2)nc2[nH]ccc12 (centres undefined), CCS(=O)(=O)Nc1ccc(-c2cc(NC(=O)C3CCCC3)nc3[nH]ccc23)cc1F, CCS(=O)(=O)Nc1ccc(-c2cc(NC(=O)Cc3ccccc3)nc3[nH]ccc23)cc1F, O=C(Nc1ccc(F)cc1)Nc1ccc(-c2cc(NC(=O)C3CC3)nc3[nH]ccc23)cc1, O=C(Nc1cc(-c2ccc(CC(=O)N3CCN(S(=O)(=O)C(F)(F)F)CC3)cc2)c2cc[nH]c2n1)C1CC1, CCC(=O)Nc1cc(-c2ccc(NS(=O)(=O)CC)c(F)c2)c2cc[nH]c2n1
